# Results taken from publication PMC3178264 (Nature chemical biology, 2009).
# Legend:
# [1] = cited from earlier work
# human UNG = human UNG (Homo sapiens, UniProt P13051); format: biochemical
# [2] = cited from earlier work; remark: listed apart in the source
# Sequence of human UNG (P13051 whole entry): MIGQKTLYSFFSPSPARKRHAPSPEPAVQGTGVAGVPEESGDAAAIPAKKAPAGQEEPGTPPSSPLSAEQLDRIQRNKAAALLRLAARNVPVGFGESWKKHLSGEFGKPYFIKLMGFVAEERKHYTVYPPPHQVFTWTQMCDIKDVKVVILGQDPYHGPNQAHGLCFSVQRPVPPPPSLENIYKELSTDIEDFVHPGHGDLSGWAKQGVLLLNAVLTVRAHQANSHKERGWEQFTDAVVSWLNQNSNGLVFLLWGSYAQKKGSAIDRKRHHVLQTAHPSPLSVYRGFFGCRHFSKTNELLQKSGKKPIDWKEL
structure (smiles),measurement,setting,value
CNCc1ccccc1 [N-methyl-benzyl amine],pKa,[1],9.8
O=C(O)c1cccc(CNCCCO/N=C/c2cc(=O)[nH]c(=O)[nH]2)c1 [compound 22],ΔΔG of binding on switching amine to oxime linkages,"human UNG; difference free energies relative to DA (27), Figure 4",-0.6 kcal/mol
O=C(O)c1cccc(/C=N/OCCCNCc2cc(=O)[nH]c(=O)[nH]2)c1 [compound 6],free energy change more negative than DO,human UNG; MA1 compared with DO,-2.0 kcal/mol
C=CC[C@@H]1/C=C(\C)C[C@H](C)C[C@H](OC)[C@H]2O[C@@](O)(C(=O)C(=O)N3CCCC[C@H]3C(=O)O[C@H](/C(C)=C/[C@@H]3CC[C@@H](O)[C@H](OC)C3)[C@H](C)[C@@H](O)CC1=O)[C@H](C)C[C@@H]2OC [FK506],binds less tightly than expected from summing the binding free energies of its component fragments,[2],about 3 kcal/mol
